#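 Cells were grown in 96-well plates and exposed to each compound for 48 hours at five concentrations; endpoints were interpolated linearly between bracketing concentrations, or set to the highest concentration if not reached. TGI is the concentration that stops growth completely.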
# Columns and labels:
# Assay in all cases: growth of human tumour cells (NCI), 48 h
# A498 renal = system: A498 renal
# ACHN renal = system: ACHN renal
# CCRF-CEM leukemia = system: CCRF-CEM leukemia
# COLO 205 colon = system: COLO 205 colon
# LOX IMVI melanoma = system: LOX IMVI melanoma
# MALME-3M melanoma = system: MALME-3M melanoma
# MCF7 breast = system: MCF7 breast
# NCI-H226 lung = system: NCI-H226 lung
# NCI/ADR-RES ovarian = system: NCI/ADR-RES ovarian
# SF-268 CNS = system: SF-268 CNS
# SK-OV-3 ovarian = system: SK-OV-3 ovarian
# SN12C renal = system: SN12C renal
# SR leukemia = system: SR leukemia
# U251 CNS = system: U251 CNS
# UO-31 renal = system: UO-31 renal
SMILES,TGI (A498 renal),TGI (ACHN renal),TGI (CCRF-CEM leukemia),TGI (COLO 205 colon),TGI (LOX IMVI melanoma),TGI (MALME-3M melanoma),TGI (MCF7 breast),TGI (NCI-H226 lung),TGI (NCI/ADR-RES ovarian),TGI (SF-268 CNS),TGI (SK-OV-3 ovarian),TGI (SN12C renal),TGI (SR leukemia),TGI (U251 CNS),TGI (UO-31 renal)
CN(C)C(=S)/N=c1\ssc(=S)n1Cc1ccccc1,> 69.5 µM,> 56.2 µM,49.6 µM,1.95 µM,> 63.1 µM,30.7 µM,> 46.4 µM,28 µM,0.401 µM,> 63.1 µM,5.27 µM,> 63.1 µM,37.3 µM,18.6 µM,54 µM
CC1=NN(c2nc(N)nc(CSc3nc4n(c(=S)n3)CCN4)n2)C(C)(C)C1,> 100 µM,> 100 µM,> 100 µM,> 100 µM,> 100 µM,–,> 100 µM,53.1 µM,> 100 µM,35.2 µM,71.6 µM,–,> 100 µM,> 100 µM,–
COc1cc(-c2cc(-c3ccccc3)nc(-c3c(OC)ccc4c(C)cc(=O)oc34)c2)cc(OC)c1OC,> 100 µM,> 100 µM,> 100 µM,> 100 µM,> 100 µM,> 100 µM,> 100 µM,> 100 µM,> 100 µM,> 100 µM,> 100 µM,> 100 µM,> 100 µM,> 100 µM,> 100 µM
CCOC(=O)c1nc2ccccc2nc1NCc1cc(OC)c(OC)c(OC)c1,96.2 µM,> 100 µM,> 100 µM,> 100 µM,> 100 µM,> 100 µM,> 100 µM,> 100 µM,47.8 µM,> 100 µM,> 100 µM,> 100 µM,> 100 µM,> 100 µM,> 100 µM
C[C@H](NC(=O)c1ccc(CNC(=O)/C=C/c2cccc(Oc3ccccc3)c2)cc1)c1ccccc1,> 100 µM,> 100 µM,> 100 µM,> 100 µM,> 100 µM,> 100 µM,> 100 µM,> 100 µM,> 100 µM,> 100 µM,> 100 µM,> 100 µM,> 100 µM,> 100 µM,> 100 µM
O=S(=O)(O)C(=Nc1cccc(Cc2ccccc2)c1)Nc1cccc(Cc2ccccc2)c1,45.8 µM,38.7 µM,98 µM,34.3 µM,26.6 µM,32.6 µM,37.9 µM,33.7 µM,35.2 µM,33.6 µM,36.9 µM,37.2 µM,69.7 µM,37.8 µM,29.5 µM
COC(=O)C1CN=CN1CCc1ccccc1 (centres undefined),> 100 µM,> 100 µM,> 100 µM,> 100 µM,> 100 µM,> 100 µM,> 100 µM,> 100 µM,> 100 µM,–,> 100 µM,–,> 100 µM,> 100 µM,> 100 µM
Brc1cc(CCOC2CCCCO2)c(-c2sccc2CCOC2CCCCO2)s1 (centres undefined),> 100 µM,> 100 µM,> 82.5 µM,> 100 µM,> 71.2 µM,87.7 µM,> 80 µM,> 100 µM,> 100 µM,> 100 µM,> 100 µM,> 100 µM,49.1 µM,> 100 µM,> 42.1 µM
O=c1ccn([C@@H]2C[C@@H]2CO)c(=O)[nH]1,> 100 µM,> 100 µM,> 100 µM,> 100 µM,> 100 µM,> 100 µM,> 100 µM,> 100 µM,> 100 µM,> 100 µM,–,> 100 µM,> 100 µM,> 100 µM,> 100 µM
CCn1c(SCC(=O)NNC(=S)Nc2ccc([N+](=O)[O-])cc2)nc2ccccc2c1=O,> 100 µM,> 100 µM,> 100 µM,> 100 µM,> 100 µM,> 100 µM,> 100 µM,> 100 µM,> 100 µM,> 100 µM,> 100 µM,> 100 µM,> 100 µM,> 100 µM,> 100 µM
CC(=O)O[C@H]1C(=O)[C@@]2(C)[C@H]([C@H](OC(=O)c3ccccc3)[C@]3(O)C[C@H](OC(=O)[C@H](O)[C@@H](NC(=O)c4cccc(N=[N+]=[N-])c4)c4ccccc4)C(C)=C1C3(C)C)[C@]1(OC(C)=O)CO[C@@H]1C[C@@H]2O,7.62 µM,> 25 µM,0.0681 µM,0.0405 µM,> 25 µM,> 25 µM,> 25 µM,> 25 µM,> 25 µM,> 25 µM,> 25 µM,> 25 µM,0.162 µM,0.635 µM,> 25 µM
O=C1CSC(c2ccc([N+](=O)[O-])cc2)N1c1ccc(-n2c(-c3ccccc3)nc3ccccc3c2=O)cc1 (centres undefined),> 100 µM,> 100 µM,> 100 µM,> 100 µM,> 100 µM,> 100 µM,> 100 µM,> 100 µM,> 100 µM,> 100 µM,> 100 µM,> 100 µM,> 100 µM,> 100 µM,29.3 µM
COc1cc2c(cc1OCCCCN1C(=O)c3cccc4cccc(c34)C1=O)N=C[C@@H]1CCCN1C2=O,13.9 µM,5.2 µM,5.08 µM,8.21 µM,> 100 µM,16.1 µM,22.4 µM,23.5 µM,28.4 µM,> 100 µM,> 74 µM,17.7 µM,> 100 µM,> 33.9 µM,3.4 µM
N#CC(=C1CCN(CCCC(=O)c2ccc(F)cc2)CC1)c1ccccc1,> 100 µM,> 100 µM,> 100 µM,> 100 µM,> 100 µM,> 100 µM,> 100 µM,> 100 µM,> 100 µM,> 100 µM,> 100 µM,> 100 µM,> 100 µM,> 100 µM,> 100 µM
CCCCc1ccc(Nc2nc(SC)c3[nH]cnc3n2)cc1,> 78.5 µM,> 100 µM,12.3 µM,> 100 µM,> 100 µM,> 100 µM,> 100 µM,> 100 µM,> 100 µM,> 100 µM,> 100 µM,> 100 µM,9.69 µM,> 100 µM,> 100 µM

# Source: PubChem BioAssay (NCI)
